pIC50: −log10 of the molar value.
What was measured:
[1] = Inhibition of RANTES-induced migration of human embryonic kidney (CCR1/HEK) cell transfectants
[2] = target: T1, C-C chemokine receptor type 1 (Homo sapiens, UniProt P32246); assay: ChEBML_40342
T1 sequence (P32246 whole entry): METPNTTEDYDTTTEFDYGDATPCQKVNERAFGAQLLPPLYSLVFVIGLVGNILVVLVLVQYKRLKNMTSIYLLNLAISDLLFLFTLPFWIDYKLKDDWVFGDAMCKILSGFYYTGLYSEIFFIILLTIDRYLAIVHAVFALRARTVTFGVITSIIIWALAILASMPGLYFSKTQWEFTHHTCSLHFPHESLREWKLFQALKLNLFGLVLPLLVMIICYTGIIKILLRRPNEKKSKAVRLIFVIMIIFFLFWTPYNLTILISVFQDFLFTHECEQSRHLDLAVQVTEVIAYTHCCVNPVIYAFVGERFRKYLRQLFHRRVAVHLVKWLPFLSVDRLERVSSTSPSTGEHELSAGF
Description: Inhibition of RANTES-induced migration of human embryonic kidney (CCR1/HEK) cell transfectants

Compound | pIC50 [1] | pIC50 [2]
CC(C)CCCC(C)[C@H]1CC[C@H]2[C@@H]3CCC4C[C@@H](CCC=C(c5cc(Cl)c(O)c(C(=O)O)c5)c5cc(Cl)c(O)c(C(=O)O)c5)CC[C@]4(C)[C@H]3CC[C@]12C (some centres undefined) | 6.59 | –
CC(C)CCCC(C)[C@H]1CC[C@H]2[C@@H]3CCC4C[C@@H](CCC=C(c5cc(Cl)c(O)c(C(=O)NCC(=O)O)c5)c5cc(Cl)c(O)c(C(=O)NCC(=O)O)c5)CC[C@]4(C)[C@H]3CC[C@]12C (some centres undefined) | 5.00 | –
[C][C]([C])[C][C][C][C]([C])[C@H]1[C][C][C@H]2[C@@H]3[C][C][C]4[C][C@@H]([C][C][C]=C(c5cc(Cl)c(O[C]c6ccc(-c7cccc(C([O])=O)c7)cc6)c(C(=O)O)c5)c5cc(Cl)c(O[C]c6ccc(-c7cccc(C([O])=O)c7)cc6)c(C(=O)O)c5)[C][C][C@]4([C])[C@H]3[C][C][C@]12[C] [5-{1-{3-carboxylato-4-[4-(3-carboxyphenyl)benzyloxy]-5-chlorophenyl}-4-[1-(1,5-dimethylhexyl)-9a,11a-dimethylperhydrocyclopenta[a]phenanthren-7-yl]-1-butenyl}-2-[4-(3-carboxyphenyl)benzyloxy]-3-chlorobenzoate] | – | 5.04
[C][C]([C])[C][C][C][C]([C])[C@H]1[C][C][C@H]2[C@@H]3[C][C][C]4[C][C@@H]([C][C][C]=C(c5cc(Cl)c(O[C]c6cccc(B([O])O)c6)c(C(=O)O)c5)c5cc(Cl)c(O[C]c6cccc(B([O])O)c6)c(C(=O)O)c5)[C][C][C@]4([C])[C@H]3[C][C][C@]12[C] [Cosalane derivative] | – | 5.40
